In patent US10738019B2, “Compound including basic dye and amino acid, hair dyeing dye, and hair dyeing composition” (HODOGAYA CHEMICAL CO., LTD., priority 2018, dated 2020) one finds water solubility data, which are given here for two compounds.

This series is described as follows: Water solubility, foaming property and hair feel during hair dyeing. It counts as physicochemical. Particulars: for hair dyeing (dyeing gel, pH 6 aqueous solution). The method, then: Subsequently, Human White hair 100% BM-W manufactured by Beaulax Co., Ltd. was used as hair to be dyed. Two parts by mass of the dyeing gel was taken with respect to 1 part by mass of the hair and applied to the hair uniformly using a comb, and the hair was dyed at 40° C. for 10 minutes and washed with water.

The structures appear in SMILES notation.

Consider `CC1=CC(=C(c2ccc(N)c(C)c2)c2ccc(N)c(C)c2)C=CC1=N` [Compound (A-3)], for which the water solubility result is recorded as “sufficient water solubility for hair dyeing”.

For `C[N+](C)(C)c1ccc2ccc(O)c(N=Nc3ccc(N)cc3)c2c1` [Compound (A-5)], the water solubility entry is listed as “sufficient water solubility for hair dyeing”.
